# Data taken from patent publication US20090099218A1, “SYNTHESIS OF NOVEL TUBULIN POLYMERIZATION INHIBITORS: BENZOYLPHENYLUREA (BPU) SULFUR ANALOGS” (priority 2007, published 2009).
# “And” between values parts separate entries of the source, which are not always exact repeats. Equal entries are not always repeated.
# Tests used:
# [1] = test system: pancreas cancer xenografts; assay: In vivo growth inhibition of patient-derived pancreas cancer xenografts; set-up: species or system athymic nude mice; details: for average growth after 28 days of treatment (T/C): individual patient xenograft cases; for efficacy in case 194: case with the greatest expression of MAPT; for slopes of treated versus control group, all nine cases: integrated analysis of nine treatment groups; for efficacy in case 215: low MAPT-expressing case, docetaxel 30 mg/kg i.p. once a week for 2 weeks
# Procedure: Six-week-old female athymic nude mice (Harlan) were used. The research protocol was approved by the Johns Hopkins University Animal Care and Use Committee, and animals were maintained in accordance to guidelines of the American Association of Laboratory Animal Care. Surgical non-diagnostic specimens from patients who had undergone surgery at the Johns Hopkins Hospital were implanted s.c. in one to two mice for each patient, with two small pieces per mouse (F1 generation). Tumors were grown to 1.5 cm^3 and then harvested, divided into small ˜3×3×3 mm pieces, and transplanted to another five mice, with two tumors per mouse (F2 generation). After a second growth passage, tumors were excised and propagated to cohorts of ≧20 mice. These groups constituted the F3, or treatment cohort. Tumors from this third mouse-to-mouse passage were allowed to grow to ˜200 mm3, at which time mice were randomized into three treatment groups, with five to six mice (10 evaluable tumors) in each group: control (vehicle), 6n (50 mg/kg i.p. twice per week), and 7d (50 mg/kg i.p. twice per week). Docetaxel treatment was given to selected groups at a dose of 30 mg/kg i.p. once a week for 2 weeks. Mice were monitored daily for signs of toxicity and were weighed thrice per week. Tumor size was evaluated twice per week by caliper measurements using the following formula: tumor volume=[length×width^2]/2. Relative tumor growth inhibition was calculated by relative tumor growth of treated mice divided by relative tumor growth of control mice from the onset of therapy (T/C).
# To assess the treatment effect, a hierarchical linear regression model was used with random intercepts and fixed slopes. Based on the results of exploratory plots, the assumption of fixed effects for slopes seemed reasonable. This model allowed for mouse effects to be nested within patient effects so that the hierarchical structure is fully accounted for. Specifically, the following linear regression model was fitted: log(γiJt)=a1ijtimeijt+b2jtimeijt×trtij+βtime^2ijt+eijt where j indexes patient, i indexes mouse, and t indexes time; yijt is the percentage change in tumor volume (compared with day 0) in mouse i, which is a xenograft for patient j at time t; and trtij is treatment (1=treated, 0=control) received by mouse i, which is a xenograft for patient j. […] An intercept and main effect of treatment were not included in the model that makes two assumptions: (a) at time 0, the change from baseline is 0 (which is empirically true), and (b) at baseline, the treated and untreated curves intersect. The model was fit using Win-Bugs software that estimates models using a Markov chain Monte Carlo estimation procedure. A burn-in of 10,000 iterations was done, and then the chain was run for an additional 20,000 iterations, of which every 10th iteration was saved for inference. Several chains were run with different starting values to ensure convergence. No convergence issues arose. The fitted model was used to make inferences with respect to the treatment effect and to create fitted regression lines (rescaled on the Y-axis for clearer interpretation). Point estimates of variables of interest (e.g., expected difference in tumor volume between treated and control at 28 days) and 95% credible intervals were based on the mean of posterior distributions and the 2.5th and 97.5th quantiles of the posterior distribution, respectively. The comparisons between means and proportions obtained from the biological studies were done using Student's t-test and χ^2 method, respectively. ANOVA was used when three or more variables were compared.
# Tumors from nine cases of pancreatic cancer were used to establish xenografts in nude mice, and the animals were treated with either vehicle, 6n, or 7d (FIG. 36A). The level of efficacy varied both between drugs and within cases treated with each drug. FIG. 37 provides an integrated summary of all data points obtained in the studies. […]
# [2] = test system: Panc1005; assay: MTT growth inhibition, pancreatic cell line Panc1005; format: cell-based; details: Homo sapiens, Panc1005; MTT assay, 96 h treatment; average of three independent experiments
# Procedure: (§1) Eight of these analogs 6d, 6h, 6n, 6g, 7b, 7d, 8g, and 8h were tested for their cytotoxicity in seven pancreatic cell lines ASPC1, Panc1, Panc203, Panc430, Pane 1005, MiaPaca2, and HS766T using MTT assay. Cells were trypsinized, seeded at 5×10^3 cells/well in 96-well plate and allowed to grow for 24 hours before the treatment with exponential increasing concentrations of drugs in the presence of 10% FBS. After a 96-hours period of treatment, 20 μl of MTT solution (5 mg/ml in PBS) were added to each well, and the plates were then incubated for 3 hours at 37° C. Medium was then replaced with 100 μl of DMSO per well. Plates were shaken and the optical density was measured at 570 nm using a multiwell plate reader (Bio-Rad, Model 550, Bio-Rad Inc., Hercules, Calif.). Each experiment was performed in triplicate for each drug concentration and was carried out independently at least 3 times. The IC50 value was defined as the concentration needed for a 50% reduction in the absorbance calculated based on the survival curves. Response to drug treatment was assessed by standardizing treatment groups to untreated controls. Compounds activity was compared with compound 1.
# (§2) Table 2 (Growth Inhibition of Pancreatic Cancer Cell Lines by BPU and BPTU Analogues (IC50) a) compares the cytotoxicity of a series of new derivatives against a panel of seven pancreatic cancer cell lines, as determined by MTT assay. See, Mosmann, T., J. Immunol. Methods 65:55-63 (1983).
# [3] = test system: HS766; assay: MTT growth inhibition, pancreatic cell line HS766; format: cell-based; details: Homo sapiens, Hs 766; MTT assay, 96 h treatment; average of three independent experiments
# Procedure: as §1, §2
# [4] = test system: tubulin; assay: Inhibition of tubulin polymerization; format: biochemical; details: for IC50: Tubulin was at 10 μM, read-out: tubulin IC50 ± SD (inhibition of tubulin polymerization)
# Procedure: Briefly, tubulin polymerization was followed turbidimetrically at 350 nm in Beckman model DU7400 and DU7500 recording spectrophotometers equipped with electronic temperature controllers. […] Samples were pre-incubated for 15 min at 30° C. and chilled on ice. GTP (final concentration, 0.4 mmol/L) was added to each reaction mixture, and these were placed in cuvettes held at 0° C. Baselines were established, the temperature was raised to 30° C.
# [5] = test system: ASPC1; assay: MTT growth inhibition, pancreatic cell line ASPC1; format: cell-based; details: Homo sapiens, ASPC1; MTT assay, 96 h treatment; average of three independent experiments
# Procedure: as §1, §2
# [6] = test system: Panc1; assay: MTT growth inhibition, pancreatic cell line Panc1; format: cell-based; details: for IC50: Homo sapiens, PANC-1, MTT assay, 96 h treatment, average of three independent experiments
# Procedure: as §1, §2
Structure (SMILES),"proportion of sensitive cases, above the median MAPT expression ([1]; 50 mg/kg i.p. twice per week)","proportion of sensitive cases, below the median MAPT expression ([1]; 50 mg/kg i.p. twice per week)",average growth after 28 days of treatment (T/C) ([1]; 50 mg/kg i.p. twice per week),efficacy in case 194 [1],efficacy compared with docetaxel ([1]; direct comparison in three cases),"slopes of treated versus control group, all nine cases [1]",efficacy in case 215 [1],efficacy compared with erlotinib ([1]; same patient-derived xenografts),IC50 [2],IC50 [3],potency as inhibitor of tubulin assembly relative to 7d [4],IC50 [4],IC50 [5],IC50 [6],increase in potency over 6m ([6]; Panc1),increase in activity compared to 7c ([6]; Panc1)
"O=C(NC(=O)c1ccccc1[N+](=O)[O-])Nc1ccc(Sc2ncc(Br)cn2)cc1 [Compound 6n, 1-[4-(5-Bromopyrimidin-2-ylsulfanyl)phenyl]-3-(2-nitrobenzoyl)-urea]",0 of 4,4 of 5,≤ 50% and 60%,inactive,at least as efficacious (if not better) than docetaxel,no statistical differences,particularly efficacious,superior to erlotinib,10000 nM,88 nM,twice as potent,2100 nM,1000 nM,85 nM,8 fold,–
Nc1ccccc1C(=O)NC(=O)Nc1ccc(Sc2ncc(Br)cn2)cc1 [Compound 7d],–,–,43% and 59%,inactive,–,no statistical differences,particularly efficacious,–,10000 nM,700 nM,–,> 40000 nM,450 nM,90 nM,–,39 fold
